Results on four compounds are retold here after patent US20060205688A1, “Method of modulating epithelial cell activity by modulating the functional levels of sphingosine kinase” (priority 2002, published 2006).

What all share (format): cell-based, human
In one experiment the test system is HUVEC. As to the kind of experiment: Cell survival in serum-free medium (MTS). On the set-up: effect of inhibitor on cell survival of control cells: dose or concentration left out as unconfirmed.
A further experiment relates to VCAM-1. As to the kind of experiment: VCAM-1 cell surface expression (FACS). The protocol:
(§1) Flow cytometric analysis of cell surface expression of E-Selectin and VCAM-1 was performed as previously described (11) using 10 μg/ml mouse monoclonal primary antibodies to E-Selectin (49-1B11) or VCAM-1 (51-10C9) generated in our laboratory (Gamble J R, Khew-Goodall Y, Vadas M A. (1993) supra). Secondary antibodies used were anti-mouse fluorescein-isothiocyanate, or for GFP-expressing cells, goat anti-mouse IgG R-phycoerythrin conjugate (Southern Biotech Birmingham, Ala., USA). The median fluorescence intensity was determined using a Coulter Epics Profile XL flow cytometer.

A further experiment relates to E-Selectin. As to the kind of experiment: E Selectin cell surface expression (FACS). The protocol: as §1
For experiment [1], the system named is PECAM-1. As to the kind of experiment: PECAM-1 expression (flow cytometry, Western blot). The conditions noted are these: normal HUVEC. The protocol: SDS-polyacrylamide gel electrophoresis was performed as described (Pitson S M, Moretti P A, Zebol J R, Xia P, Gamble J R, Vadas M A et al. (2000) J Biol Chem; 275(43):33945-33950) on cell lysates using 12% acrylamide gels. […] The membrane was incubated with horseradish peroxidase-conjugated anti-mouse IgG or anti-rabbit IgG (Pierce) and immunocomplexes were detected using enhanced chemiluminescence (Amersham Pharmacia Biotech).
Flow cytometric analysis of cell surface expression of PECAM-1 and VE-Cadherin was performed as previously described (Xia P, Gamble J R, Rye K A, Wang L, Hii C S, Cockerill P et al. (1998) supra) using 10 µg/ml mouse monoclonal primary antibodies to PECAM-1 (51-6F6) or VE-Cadherin (55-7H1) generated in our laboratory (Gamble J R, Khew-Goodall Y, Vadas M A. (1993) J Immunol; 150(10):4494-4503). […] The median fluorescence intensity was determined using a Coulter Epics Profile XL flow cytometer. FAC S analysis of the cell surface expression of CD34 was done by incubating 1×10^6 cells with […] of anti-CD34, R-phycoerythrin (R-PE)-conjugated mouse anti-human mAb (BD Pharmingen, San Diego, Calif.) for 30 minutes at room temperature, and then determining the median fluorescence intensity.

For experiment [2], the system named is PECAM-1. As to the kind of experiment: PECAM-1 phosphorylation (Western blot). The conditions noted are these: data not shown. As to the method:
SDS-polyacrylamide gel electrophoresis was performed as described (Pitson S M, Moretti P A, Zebol J R, Xia P, Gamble J R, Vadas M A et al. (2000) J Biol Chem; 275(43):33945-33950) on cell lysates using 12% acrylamide gels. Proteins were transferred to PVDF membranes, blocked in 5% low fat milk in PBS with 0.1% Tween20 for one hour, and incubated overnight at 4 C with M2 mouse anti-FLAG antibody (Sigma, St Louis, Mo.), rabbit polyclonal anti-phospho-Akt (Cell Signaling Technology), rabbit polyclonal anti-Akt (Cell Signaling Technology), anti-phosphotyrosine (Cell Signaling Technology), or for one hour at room temperature with mouse anti-cyclin D1 or cyclin E (Santa Cruz Biotechnology) or mouse monoclonal antibody directed to PECAM-1 (51-6F6) raised at The Hanson Institute, Adelaide, Australia. The membrane was incubated with horseradish peroxidase-conjugated anti-mouse IgG or anti-rabbit IgG (Pierce) and immunocomplexes were detected using enhanced chemiluminescence (Amersham Pharmacia Biotech).
For orientation: In western blotting, separated proteins are transferred to a membrane and probed.

[3] abbreviates: pertussis toxin 50 ng/ml 18 hours, then TNFα 0.5 ng/ml four hours, control cells or SK cells.
Setting [4] is: pertussis toxin 50 ng/ml, cells over-expressing SK or EV.
Where [5] appears, read: 5 μM for four hours, SK and EV cells.

Entries after “also recorded” stand apart in the source; their conditions may differ. Where two headings read alike, the source gives them in different places.

Procedure for HUVEC: Endothelial cells were plated into gelatin coated 96 well microtitre trays at 3×10^3 cells per well in serum-free medium. MTS (Promega, WI, USA) was used to measure cell viability. Optical density at 490 nm was measured on Day 0, Day 1, Day 2, and Day 3.
Cell survival was measured in serum-free medium supplemented with ECGs and in non-tissue culture non-adhesive trays coated with 1% bovine serum albumin under serum free culture conditions.

On to pertussis toxin, for which the “effect on SK-mediated cell survival” value with HUVEC (pertussis toxin 50 ng/ml, HUVEC over-expressing SK) was “not inhibited”. Further, in the experiment with VCAM-1 (SK and EV cells, adhesion molecule (VCAM-1 / E Selectin) not specified), the “effect of pretreatment on adhesion molecule response to exogenous SIP” value is given as “inhibited”. In addition, the “effect of pre-treatment on TNFα-induced VCAM-1 expression” value with VCAM-1 (setting [3]) is recorded as “did not alter”. Moreover, the “effect on basal or TNFα-induced VCAM-1 expression” value with VCAM-1 (setting [4]) was “did not inhibit”. Also, in the experiment on E-Selectin (setting [3]), the “effect of pre-treatment on TNFα-induced E Selectin expression” value is recorded as “did not alter”. The “effect on basal or TNFα-induced E Selectin expression” value in the experiment with E-Selectin (setting [4]) was “did not inhibit”.
In the case of `N#CC(=C(/N)Sc1ccccc1N)/C(C#N)=C(\N)Sc1ccccc1N` [U0126], the “effect of inhibitor on cell survival of control cells” value in the experiment with HUVEC is recorded as “significantly reduced cell survival”.
For `CCCCCCCCCCCCC/C=C/[C@@H](O)[C@@H](N)COP(=O)(O)O` [S1P], the “PECAM-1 expression after exogenous S1P” value in the experiment on PECAM-1 [1] was “did not induce PECAM-1 expression; also recorded: had no effect”. In addition, in the experiment on PECAM-1 [2], the “PECAM-1 phosphorylation status after exogenous S1P” value was “had no effect”. In addition, the “VCAM-1 expression after exogenous SIP” value in the experiment with VCAM-1 (setting [5]) was “up-regulation”. For the same compound, in the experiment with E-Selectin (setting [5]), the “E Selectin expression after exogenous SIP” value is “up-regulation”.
With `COc1cccc(-c2cc(=O)c3ccccc3o2)c1N` [PD98059], the “effect of inhibitor on cell survival of control cells” value in the experiment with HUVEC (EV cells, Day 2) is “significantly reduced cell survival”.
